Measured values published in publication PMC9782877 (Molecules, 2022).
Where “and” joins values, the source holds several entries; their conditions need not be identical. Equal values may be shown once.

Columns and labels:
[1] = Parallel artificial membrane permeability assay (PAMPA); format: in vitro ADME; conditions: pH 7.4, 5 h; for Papp at 5 h, 0.5 mM: room temperature, read-out: Apparent Permeability (Papp)
Procedure: The trend appreciated in terms of solubility was confirmed by results obtained from permeability studies. In fact, parallel artificial membrane permeability assay (PAMPA) underlined how the low solubility of compounds 6 and 7 was accompanied by a major tendency of these derivatives to interact with the lipidic artificial membrane where they probably remained entrapped.
In order to assess the apparent permeability of selected compounds, a stock solution in DMSO of each derivative was prepared at the final concentration of 1 mM. By diluting the stocks 1:1 v/v with phosphate buffer (PBS 25 mM, pH 7.4), donor solutions were made. To mimic the gastrointestinal (GI) phospholipidic bilayer, 10 µL of a 1% w/v dodecane solution of phosphatidylcholine (PC) was used to coat filters. The acceptor solution, made of 1:1 v/v DMSO/PBS, was added to each well (300 µL), while the donor solution (150 µL) was added to each well of the filter plate. The sandwich plates were assembled and incubated for 5 h at room temperature. At the time point, the plates were separated, and the amount of compound passed through the phospholipid bilayer was measured by UV/LC-MS. Finally, apparent permeability (Papp) and membrane retention (MR%) were calculated as previously reported by us.

Human plasma stability = format: in vitro ADME; conditions: 100 µM
Procedure: Finally, further studies were performed in order to investigate the stability in the presence of human plasma. All compounds were incubated at the fixed concentration of 100 µM in plasma for 24 h.
A DMSO stock solution of each compound was incubated in triplicate in the presence of human plasma and HEPES buffer (25 mM, 140 mM NaCl, pH 7.4) at the final concentration of 100 µM at 37 °C under shaking. At the selected time point of 0 and 24 h, 50 µL of the mixture was collected, treated with 1.0 mL of cold ACN, and centrifuged at 5000 rpm for 10 min. The supernatant was collected, and the amount of unmodified compound was quantified with the HLPC-UV/MS method above reported. Calculations of modified compounds were made using time zero as 100% of the unmodified compound.

HIV = test system: HIV; set-up: method as in PMID 21698775; conditions: PBMC; read-out: EC50, antiretroviral effect; cited from earlier work
[2] = test system: peripheral blood mononuclear cells (PBMC); set-up: method as in PMID 21698775; conditions: read-out: CC50, cytotoxicity; cited from earlier work
in vitro [3] = conditions: human
[4] = Aqueous solubility in Mill-Q H2O; conditions: water, thermodynamic from solid
Procedure: Chromatographic separations were obtained using a Phenomenex Kinetex C18-100 Å column (150 × 4.6 mm) with 5 µm particle size and gradient elution with a binary solution; (eluent A: H2O acidified with formic acid (FA) 0.1% v/v, eluent B: ACN/MeOH 1:1 v/v) at room temperature. The analysis started with 5% of B (from t = 0 to t = 1 min), then B was increased to 95% (from t = 1 to t = 10 min), then kept at 95% (from t = 10 to t = 15 min) and finally returned to 5% of eluent A in one minute. The instrument worked in positive mode and the UV detector operated at 254 nm.
One mg of each compound was added with 1 mL of Mill-Q H2O. The samples were maintained under shaking at room temperature (RT) overnight. The suspensions were filtered using a 0.45 µm nylon filter (Acrodisc), and the amount of solubilized compound was determined with the HPLC-UV-MS method above reported. The quantification of the solubilized compound was created with the appropriate calibration curve realized with stock solutions in DMSO (0.1–100 µg/mL); the limit of detection (LOD) was quantified at 0.1 µg/mL.

in vitro [5] = conditions: human; remark: listed apart in the source
SARS-CoV-2 = experiment: microbe, parasite or virus in culture; format: cell-based; conditions: for SI, Selectivity Index (ratio between CC50 and IC50): Caco-2 cells, SARS-CoV-2; for IC50: Severe acute respiratory syndrome coronavirus 2, Caco-2, 72 h, read-out: IC50, half-maximal compound concentration inhibiting 50% of the SARS-CoV-2 replication
human helicase DDX3X = human helicase DDX3X (Homo sapiens, UniProt O00571); experiment: DDX3X ATPase inhibition, ADP-Glo assay; format: biochemical
Chain of human helicase DDX3X (O00571 whole entry): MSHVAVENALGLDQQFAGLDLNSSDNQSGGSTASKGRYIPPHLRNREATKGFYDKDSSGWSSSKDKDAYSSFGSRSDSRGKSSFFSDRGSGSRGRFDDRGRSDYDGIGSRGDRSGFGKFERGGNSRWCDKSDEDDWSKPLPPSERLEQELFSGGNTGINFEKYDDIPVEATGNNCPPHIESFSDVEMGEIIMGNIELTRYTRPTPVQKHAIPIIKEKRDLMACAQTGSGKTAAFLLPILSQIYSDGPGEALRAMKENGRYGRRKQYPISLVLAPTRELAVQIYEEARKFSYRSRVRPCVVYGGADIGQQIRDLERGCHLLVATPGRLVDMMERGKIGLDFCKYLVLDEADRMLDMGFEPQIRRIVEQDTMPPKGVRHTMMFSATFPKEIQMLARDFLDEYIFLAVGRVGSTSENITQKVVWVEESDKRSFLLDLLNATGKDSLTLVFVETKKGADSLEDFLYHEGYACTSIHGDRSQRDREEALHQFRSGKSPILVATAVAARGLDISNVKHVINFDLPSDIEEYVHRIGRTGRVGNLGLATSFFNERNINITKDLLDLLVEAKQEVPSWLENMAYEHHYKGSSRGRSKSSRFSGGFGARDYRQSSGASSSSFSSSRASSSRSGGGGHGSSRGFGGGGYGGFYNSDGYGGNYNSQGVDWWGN
Procedure: For the more promising compound, derivative 10a, the inhibition of the ATPase activity of the human helicase DDX3X was evaluated. Different concentrations of the compound were incubated with 1 µM of purified recombinant DDX3X and ATPase activity was determined with the ADP-glo assay.
The ATPase enzymatic activity of DDX3X was determined by the ADP-Glo kit (Promega, MD, USA). The reaction was performed in ATPase buffer (20 mM Tris–HCl pH 8, 2 mM DTT, 70 mM KCl, 2 mM MgCl2, 5% DMSO) pre-incubating 1 µM DDX3X with different concentrations of inhibitor for 10 min at 25 °C. ATPase reaction started with the addition of 1 mM ATP. After 30 min of incubation at 25 °C, the assay was conducted following the manufacturer’s instructions. The ATPase enzymatic activity was analyzed using a 384-wells plate and the GloMax Discover Microplate Reader (Promega, MD, USA) and expressed as a percentage of inhibition calculated from the light units obtained.

[6] = test system: HIV-1 wild-type reference strain NL4-3; experiment: Anti-HIV-1 BiCycle Assay (H9 cells, then TZM-bl reporter cells); format: cell-based; conditions: Human immunodeficiency virus 1, NL43, H9, read-out: IC50, half-maximal compound concentration inhibiting the 50% of HIV-1 replication

| SMILES | Membrane retention (MR) [1] | Papp at 5 h, 0.5 mM [1] | Plasma Stability % ± SD (Human plasma stability; 24 h, 37 °C) | Plasma Stability % ± SD (Human plasma stability; time 0 h (set as 100%)) | EC50 (HIV) | CC50 [2] | CC50 (in vitro [3]) | solubility [4] | CC50 (in vitro [5]) | SI, Selectivity Index (ratio between CC50 and IC50) (SARS-CoV-2) | IC50 (SARS-CoV-2) | IC50 (human helicase DDX3X) | IC50 [6] |
| --- | --- | --- | --- | --- | --- | --- | --- | --- | --- | --- | --- | --- | --- |
| Oc1ccccc1C=NNc1nc(Nc2ccc(F)cc2)nc(N2CCOCC2)n1 [compound 6] | 28.7% | 4.74 ×10⁻⁶ cm/s | 98.78 ± 4.05% | 100.00 ± 0.19% | 2.5 µM | 10 µM | 3 µM | < 0.1 µg/mL | – | – | – | – | – |
| Cc1cccc(/C=N/Nc2nc(N3CCOCC3)nc(N3CCOCC3)n2)c1 [10c] | 4.9% | 9.78 ×10⁻⁶ cm/s | 99.52 ± 3.45% | 100.00 ± 0.16% | – | – | – | 4.5 µg/mL and 11.7 µM | 74 µM | – | – | – | – |
| CCC(CC)COC(=O)[C@H](C)N[P@](=O)(OC[C@H]1O[C@@](C#N)(c2ccc3c(N)ncnn23)[C@H](O)[C@@H]1O)Oc1ccccc1 [Remdesivir, reference compound] | – | – | – | – | – | – | 94.9 µM | – | – | 1356 | 0.07 ± 0.04 µM | – | – |
| Oc1ccccc1/C=N/Nc1nc(N2CCOCC2)nc(N2CCOCC2)n1 [10a] | 4.3% | 7.89 ×10⁻⁶ cm/s | 98.48 ± 4.02% | 100.00 ± 0.28% | – | – | – | 3.23 µg/mL and 8.51 µM | – | >33.1 | 12.1 µM | 6.6 µM | – |
| CC(=O)Nc1ccc(/C=N/Nc2nc(N3CCOCC3)nc(N3CCOCC3)n2)cc1 [10b] | 9.8% | 9.7 ×10⁻⁶ cm/s | 98.41 ± 4.69% | 100.00 ± 0.24% | – | – | – | 3.46 µg/mL and 8.13 µM | – | – | – | – | – |
| Oc1ccccc1C=NNc1nc(Nc2ccc(F)cc2)nc(Nc2ccc(F)cc2)n1 [compound 7] | 15.5% | 4.58 ×10⁻⁶ cm/s | 99.56 ± 3.78% | 100.00 ± 0.28% | 2 µM | 8 µM | 0.8 µM | < 0.1 µg/mL | – | – | – | – | – |
| Cc1nnc(C(=O)NC(C)(C)c2nc(C(=O)NCc3ccc(F)cc3)c(O)c(=O)n2C)o1 [Raltegravir, reference compound] | – | – | – | – | – | – | – | – | > 100 µM | – | – | – | 0.0028 ± 0.0017 µM |
